Assay results published in PMC3785825 (Journal of the Royal Society Interface, 2013).
No end group written: not given here.

What was measured:
[1] = system: CLR A273L/RAMP1 (CGRP receptor); assay: AM-stimulated cAMP (alphascreen), A273L mutant; assay type: cell-based, human; details: residue A273 (mutated to leucine); effect of mutation on AM
Description: (§1) Curve fitting was done with […]
(§2) To explore the effects of the above mutants further, their ability to respond to AM through cAMP production was subsequently investigated. […] There was especially good agreement between the two agonists for the central area of functional importance ranging from D280 to T288. […] The effect of mutations at the N- and C-termini of ECL2 was more variable between the two peptides.

[2] = system: CLR Y277A/RAMP1 (CGRP receptor); assay: AM-stimulated cAMP (alphascreen), Y277A mutant; assay type: cell-based, human; details: Cos 7 cells
Description: as §1, §2

[3] = system: CLR L291A/RAMP1 (CGRP receptor); assay: AM-stimulated cAMP (alphascreen), L291A mutant; assay type: cell-based, human; details: Cos 7 cells
Description: as §1, §2

[4] = system: CLR S285A/RAMP1 (CGRP receptor); assay: AM-stimulated cAMP (alphascreen), S285A mutant; assay type: cell-based, human; details: residue S285; effect of alanine mutation on AM
Description: as §1, §2

[5] = system: CLR T288A/RAMP1 (CGRP receptor); assay: AM-stimulated cAMP (alphascreen), T288A mutant; assay type: cell-based, human; details: residue T288; effect of alanine mutation on AM
Description: as §1, §2

[6] = system: CLR R274A/RAMP1 (CGRP receptor); assay: AM-stimulated cAMP (alphascreen), R274A mutant; assay type: cell-based, human
Description: as §1, §2

[7] = system: CLR Y278A/RAMP1 (CGRP receptor); assay: AM-stimulated cAMP (alphascreen), Y278A mutant; assay type: cell-based, human; details: Cos 7 cells
Description: as §1, §2

[8] = system: CLR D280A/RAMP1 (CGRP receptor); assay: AM-stimulated cAMP (alphascreen), D280A mutant; assay type: cell-based, human
Description: as §1, §2

[9] = system: CLR L290A/RAMP1 (CGRP receptor); assay: AM-stimulated cAMP (alphascreen), L290A mutant; assay type: cell-based, human; details: Cos 7 cells
Description: as §1, §2

[10] = system: CGRP receptor; details: AM at the CGRP receptor versus CGRP; cited from earlier work
[11] = system: CLR W283A/RAMP1 (CGRP receptor); assay: AM-stimulated cAMP (alphascreen), W283A mutant; assay type: cell-based, human
Description: as §1, §2

[12] = system: CLR I284A/RAMP1 (CGRP receptor); assay: AM-stimulated cAMP (alphascreen), I284A mutant; assay type: cell-based, human; details: residue I284; effect of alanine mutation on AM
Description: as §1, §2

[13] = system: CLR ECL2 mutants with human RAMP1; assay: AM-stimulated cAMP (alphascreen), ECL2 alanine scan; assay type: cell-based; details: some mutants (not given); Cos 7 cells
Description: as §1, §2

[14] = system: CGRP receptors; details: double alanine mutant R^11AR^18A; cited from earlier work
Description: The loop conformations spanned a large proportion of the space available to ECL2 (figure 4a). […] ECL2 forms an extended loop; this conformation is often seen as two antiparallel beta-strands in all peptide GPCRs for which structures are available, creating a large interface for peptide–receptor contacts. Here, we re-interpret seve ...

Substance	AM effect [1]	effect on pEC50 [2]	reduction in maximal cAMP response [2]	potency versus WT [3]	AM effect [4]	AM effect [5]	cAMP response / Emax ([6]; R274A, Cos 7 cells)	AM effect ([6]; residue R274, effect of alanine mutation on AM)	effect on pEC50 [7]	reduction in maximal cAMP response [7]	cAMP response / Emax ([8]; D280A, Cos 7 cells)	AM effect ([8]; residue D280, effect of alanine mutation on AM)	potency versus WT [9]	affinity, folds less than that for CGRP [10]	cAMP response / Emax ([11]; W283A, Cos 7 cells)	AM effect ([11]; residue W283, effect of alanine mutation on AM)	AM effect [12]	activation of the receptor [13]	reduction in affinity [14] [fold]
adrenomedullin [AM]	√	did not show AM-mediated effects on pEC50	approximately 25%	not significantly affected	√	√	so low that an Emax could not be reliably determined	√	did not show AM-mediated effects on pEC50	approximately 25%	so low that an Emax could not be reliably determined	√	not significantly affected	approximately 10 folds	so low that an Emax could not be reliably determined	√	√	impossible to measure any activation of the receptor	
R^11AR^18A: double alanine mutant of CGRP, literature (ACDTATCVTHALAGLLSASGGVVKNNFVPTNVGSKAF; not fully specified; ends and bridges not checked; UniProt P06881 83-119, looked up, variant R11A R18A)																			100
